This is an account of results in US20250295642A1, “FLUOROQUINOXALINONE DERIVATIVE FOR SELECTIVELY INHIBITING PARP1” (MEDSHINE DISCOVERY INC., priority 2022, published 2025).

In one data set the target is PARP2 (Homo sapiens (Human), UniProt Q9UGN5). The experiment in a line: Binding activity between compound and PARP2, fluorescence polarization assay. Conditions: 3 nM PARP2, 5 nM fluorescent probe, 4 hours at room temperature. How it is done: (§1) The fluorescence polarization assay was performed in 96-well black-walled plates (Greiner). The reaction buffer consisted of 50 mM Tris (pH 8), 0.001% Triton X100, 10 mM MgCl2, and 150 mM NaCl. Both the fluorescent probe and His-Avi-tagged PARP2 protein were manufactured by WuXi AppTec (Shanghai). In a 100 μL reaction system, 3 nM PARP2, 5 nM fluorescent probe, and the compounds were added respectively. The compound concentration was prepared following the starting concentration and dilution gradient in Table 2. The test sample was incubated at room temperature for 4 hours, protected from light. Fluorescence polarization values were measured using an EnVision plate reader. The obtained fluorescence polarization values and compound concentrations were subjected to nonlinear fitting using GraphPad 8.0 software to determine the IC50 values.
Chain of PARP2 (Q9UGN5 whole entry): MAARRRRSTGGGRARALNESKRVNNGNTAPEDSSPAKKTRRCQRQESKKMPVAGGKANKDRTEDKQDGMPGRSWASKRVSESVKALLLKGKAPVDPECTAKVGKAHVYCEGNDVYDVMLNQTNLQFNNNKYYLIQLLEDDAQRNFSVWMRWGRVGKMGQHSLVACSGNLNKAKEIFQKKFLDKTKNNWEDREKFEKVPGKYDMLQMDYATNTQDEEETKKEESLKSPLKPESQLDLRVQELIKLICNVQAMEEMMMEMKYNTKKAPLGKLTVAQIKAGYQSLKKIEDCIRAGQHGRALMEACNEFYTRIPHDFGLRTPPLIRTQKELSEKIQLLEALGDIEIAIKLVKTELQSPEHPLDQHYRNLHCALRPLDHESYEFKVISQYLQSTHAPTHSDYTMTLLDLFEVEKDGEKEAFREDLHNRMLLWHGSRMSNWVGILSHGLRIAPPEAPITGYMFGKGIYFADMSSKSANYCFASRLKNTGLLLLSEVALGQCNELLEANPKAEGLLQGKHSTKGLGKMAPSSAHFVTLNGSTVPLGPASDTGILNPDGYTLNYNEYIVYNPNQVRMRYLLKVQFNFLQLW
(Polarisation of emitted light reports the rotation of a fluorescent probe.)

The target of the next data set is PARP1 (Homo sapiens (Human), UniProt P09874). The experiment in a line: Binding activity between compound and PARP1, fluorescence polarization assay. The settings on record: 8 nM PARP1, 5 nM fluorescent probe, 4 hours at room temperature. How it is done:
as §1, with “PARP1” for “PARP2”, “8” for “3”, “PARP1,” for “PARP2,”, “1. […]” for “2.”, “En Vision” for “EnVision”

In data set [1] the test system is MDA-MB-436 cells (BRCA1 mutation). The data set can be described thus: Anti-proliferation assay on MDA-MB-436 cells (BRCA1 mutation). Conditions: Homo sapiens, MDA-MB-436, 168 h; incubated for 7 days, chemiluminescent cell viability; read-out: IC50, proliferation inhibition on MDA-MB-436 cells (BRCA1 mutation). The class given is cell-based. The method, then: MDA-MB-436 cells (BRCA1 mutation) were seeded in black 96-well plates with clear bottoms. Each well contained 135 μL of cell suspension with 3,500 MDA-MB-436 cells (BRCA1 mutation). The cell plate was incubated overnight in a CO2 incubator. A 400× stock solution of the test compound was prepared. […] 78 μL of medium was added to an intermediate plate. Subsequently, 2 μL of the serially diluted compound per well was transferred to the corresponding wells of the intermediate plate. 2 μL of DMSO was added to the vehicle control and blank control. After mixing well, 15 μL of the mixture per well was then transferred to the cell plate. […] The cell plate was incubated for 7 days in a CO2 incubator. The cell plate was removed and equilibrated to room temperature for 30 minutes. 75 μL of chemiluminescent cell viability assay reagent was added to each well. The cell plate was shaken on an orbital shaker for 3 minutes to induce cell lysis, followed by 10 minutes of incubation at room temperature to stabilize the luminescent signal.

For another data set, the system named is DLD1 (BRCA2 KO) cells. The experiment in a line: Anti-proliferation assay on DLD1 cells (BRCA2 KO). The settings on record: Homo sapiens, DLD-1, 168 h; incubated for 7 days, chemiluminescent cell viability. The class given is cell-based. The method, then:
DLD1 (BRCA2 KO) cells were seeded in white a 96-well plate with 80 μL of cell suspension per well, containing 1,000 DLD1 (BRCA2 KO) cells per well. The cell plate was incubated overnight in a CO2 incubator. The test compounds were 5-fold diluted with a multi-channel pipette to the 8th concentration, i.e., diluted from 2 mM to 0.0256 μM, and duplicate experiment was set. 78 μL of medium was added to an intermediate plate. Subsequently, 2 μL of the serially diluted compound per well was transferred to the corresponding wells of the intermediate plate and mixed well. 20 μL of the mixture per well was then transferred to the cell plate. The concentration of the compound transferred to the cell plate ranged from 10 μM to 0.128 nM. The cell plate was incubated for 7 days in a CO2 incubator. An additional cell plate was prepared to read the signal value on the day of compound addition, which served as the maximum value (Max in the following equation) for data analysis. The cell plate was added with 25 μL of chemiluminescent cell viability assay reagent per well and incubated at room temperature for 10 minutes to stabilize the luminescent signal. A multimode microplate reader was used for reading. […].

Data set [2] in a line: In vitro liver microsomal stability, mouse liver microsomes. A general note: Microsomes from liver hold many membrane-bound enzymes, among them those of drug oxidation.
Method: (§2) The concentration of the compound in the samples was determined by LC-MS/MS.
(§3) Experimental process: The incubation was performed using 96-well incubation plates, with individual plates labeled as T0, T5, T15, T30, T45, T60, Blank60, and NCF60. The reaction time points corresponding to the incubation plates were set at 0, 5, 15, 30, 45, and 60 minutes. In the Blank60 plate, no test compound or control compound was added, and the sample was collected after 60 minutes of incubation. In the NCF60 plate, potassium phosphate buffer was used in place of the NADPH regeneration system and incubated for 60 minutes. All time point samples were taken from individual wells.
For the T0, T5, T15, T30, T45, T60, and NCF60 plates, 5 μL of either the test or control compound working solution and 100 μL of microsomal working solution (with a liver microsomal protein concentration of 0.5 mg/mL) were added. Only microsomal working solution was added to the Blank60 well. In the Blank60 plate, only the microsomal working solution was added. Then, the incubation plates, except for TO and NCF60, including Blank60, T5, T15, T30, T45, and T60, were pre-incubated in a 37° C. water bath for approximately 10 minutes. […]
The nature of data set [3]: In vitro liver microsomal stability, human liver microsomes.
Method: as §2, §3
For the T0, T5, T15, T30, T45, T60, and NCF60 plates, 5 μL of either the test or control compound working solution and 100 μL of microsomal working solution (with a liver microsomal protein concentration of 0.5 mg/mL) were added. Only microsomal working solution was added to the Blank60 well. In the Blank60 plate, only the microsomal working solution was added. Then, the incubation plates, except for TO and NCF60, including Blank60, T5, T15, T30, T45, and T60, were pre-incubated in a 37° C. water bath for approximately 10 minutes.
For samples in the TO plate, 180 μL of stop solution (where the stop solution was a solution of acetonitrile and methanol (95:5, V/V) containing 100 ng/mL tolbutamide) was added before adding the NADPH regeneration system working solution.
50 μL of potassium phosphate buffer was added to each well of the NCF60 plate and incubated for 60 minutes.
After the pre-incubation of Blank60, T5, T15, T30, T45, and T60 incubation plates, 44 μL of NADPH regeneration system working solution was added to each sample well to initiate the reaction. Therefore, for sample wells containing either the test compound or the control compound working solutions, the final reaction concentration was 1 μM, with the concentration of liver microsomes at 0.5 mg/mL. The final concentrations of DMSO and acetonitrile in the reaction system were 0.01% (v/v) and 0.99% (v/v), respectively.
After incubation for an appropriate period (e.g., 5, 15, 30, 45, and 60 minutes), 180 μL of stop solution was added to each test compound and control compound sample well in the Blank60, T5, T15, T30, T45, T60, and NCF60 plates to stop the reaction.
All sample plates were shaken thoroughly and centrifuged for 10 minutes. A volume of 80 μL of the supernatant from each test compound was diluted to 240 L with a solution of acetonitrile (1:9, v/v) containing 0.1% formic acid for LC-MS/MS analysis.

Chain of PARP1 (P09874 whole entry): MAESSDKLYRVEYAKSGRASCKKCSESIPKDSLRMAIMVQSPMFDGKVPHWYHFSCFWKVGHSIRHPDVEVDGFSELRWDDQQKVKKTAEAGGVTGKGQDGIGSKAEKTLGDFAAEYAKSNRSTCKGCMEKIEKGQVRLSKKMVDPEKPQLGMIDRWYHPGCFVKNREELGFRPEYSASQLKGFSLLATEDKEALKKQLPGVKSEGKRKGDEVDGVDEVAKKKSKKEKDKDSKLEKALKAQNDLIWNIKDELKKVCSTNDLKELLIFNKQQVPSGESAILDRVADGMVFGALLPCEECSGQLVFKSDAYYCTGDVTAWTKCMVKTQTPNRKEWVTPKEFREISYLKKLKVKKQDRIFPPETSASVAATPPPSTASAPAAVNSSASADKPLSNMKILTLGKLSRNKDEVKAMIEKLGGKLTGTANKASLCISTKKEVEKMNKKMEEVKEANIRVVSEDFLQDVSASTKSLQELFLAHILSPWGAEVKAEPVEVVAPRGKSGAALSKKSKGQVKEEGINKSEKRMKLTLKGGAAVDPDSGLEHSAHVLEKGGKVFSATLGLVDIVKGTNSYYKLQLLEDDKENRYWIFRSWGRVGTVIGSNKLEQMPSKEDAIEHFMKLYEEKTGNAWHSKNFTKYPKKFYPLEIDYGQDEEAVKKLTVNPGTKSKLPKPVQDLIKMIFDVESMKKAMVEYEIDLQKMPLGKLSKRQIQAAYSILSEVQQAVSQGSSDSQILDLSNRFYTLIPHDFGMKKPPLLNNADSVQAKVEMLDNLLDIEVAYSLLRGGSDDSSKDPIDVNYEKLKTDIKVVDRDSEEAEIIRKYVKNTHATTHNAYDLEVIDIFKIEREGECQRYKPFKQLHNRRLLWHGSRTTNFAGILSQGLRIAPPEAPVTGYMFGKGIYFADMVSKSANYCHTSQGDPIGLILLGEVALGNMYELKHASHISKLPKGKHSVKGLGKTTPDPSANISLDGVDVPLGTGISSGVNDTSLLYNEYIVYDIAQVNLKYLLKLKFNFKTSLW

Take `CNC(=O)c1ccc(N2CCN(Cc3ccc4c([nH]c(=O)c5cc(F)cnc54)c3F)CC2)c(Cl)n1` [Compound 50]: the IC50 on PARP2 was > 20000 nM; on PARP1, 7.9 nM; in data set [1], 0.41 nM.

In the case of `CNC(=O)c1ccc(C2=CCN(Cc3ccc4c([nH]c(=O)c5cccn54)c3F)CC2)c(F)n1` [Compound 28], the IC50 in data set [1] turned out to be 0.37 nM.

Regarding `CNC(=O)c1ccc(N2CCN(Cc3cc(F)c4nc(C)c(=O)[nH]c4c3F)CC2)c(F)n1` [Trifluoroacetate of compound 22], the IC50 in the data set with DLD1 (BRCA2 KO) cells was 4.43 nM; in data set [1] it was 5.73 nM.

A word on the CLint scaled: it is the capacity of the preparation to metabolise the compound, expressed as a volume cleared per time. Lower therefore signals slow turnover. With `[2H]C([2H])([2H])NC(=O)c1ccc(N2CCN(Cc3ccc4c([nH]c(=O)c5cccnc54)c3F)CC2)c(F)n1` [Compound 29], the CLint scaled at 1 μM in data set [2] is < 2.28 L/h/kg. The IC50 in data set [1] is 1.14 nM.

Broadly, the half-life is how long it takes for the measured level to halve. A low value points to rapid decline. In data set [3], `CNC(=O)c1ccc(C2=CCN(Cc3ccc4c([nH]c(=O)c5cccnc54)c3F)CC2)c(F)n1` [Compound 27] showed a CLint scaled at 1 μM of 0.57 L/h/kg and a half-life at 1 μM of 2.2 h. In data set [1], the IC50 was 0.69 nM.

Take `CNC(=O)c1ccc2c(n1)CC[C@H]1CN(Cc3c(F)cc4nc(C)c(=O)[nH]c4c3F)CCN21` [Trifluoroacetate of compound 19]: the IC50 on PARP2 was > 50000 nM; at PARP1, 14 nM; with DLD1 (BRCA2 KO) cells, 24.2 nM.

In the case of `CNC(=S)c1ccc(N2CCN(Cc3ccc4nc(C)c(=O)[nH]c4c3F)CC2)c(F)n1` [Trifluoroacetate of compound 5], the IC50 in data set [1] was 1.2 nM.

With `[2H]C([2H])([2H])NC(=O)c1ccc(N2CCN(Cc3ccc4c([nH]c(=O)c5cc(F)cnc54)c3F)CC2)c(Cl)n1` [Compound 52], the IC50 on PARP1 amounted to 5.5 nM.

With `[2H]C([2H])(c1ccc2c([nH]c(=O)c3cccnc32)c1F)N1CCN(c2ccc(C(=O)NC)nc2F)CC1` [Compound 44], in data set [1], the IC50 turned out to be 0.65 nM.

For the compound `[2H]C([2H])(c1ccc2c([nH]c(=O)c3cccnc32)c1F)N1CCN(c2ccc(C(=O)NC)nc2Cl)CC1` [Compound 45], the IC50 in data set [1] was 0.27 nM.

Regarding `[2H]C([2H])([2H])NC(=O)c1ccc(C2=CCN(Cc3ccc4c([nH]c(=O)c5cccnc54)c3F)CC2)c(F)n1` [Compound 31], the IC50 at PARP2 was > 20000 nM; on PARP1 it was 4.7 nM; in data set [1], 0.75 nM. The CLint scaled at 1 μM in data set [3] is < 0.516 L/h/kg. Moreover, the half-life at 1 μM in data set [3] is > 2.42 h.
